Assay results published in patent US10722505B2, “Substituted 2,4 diamino-quinoline as new anticancer agents” (GENOSCIENCE PHARMA, priority 2014, dated 2020).
pEC50: −log10 of the molar value. Counter-ions that a name gives are not always drawn.

Key:
[1] = tested on: CPP30 liver metastatic CRC patient-derived cells; experiment: CellTiter-Glo growth inhibition, liver metastatic CRC patient-derived cells CPP30; type: cell-based; conditions: Homo sapiens; CPP30, 72 h
Excerpt: Patient derived liver metastasis cells (CPP19, 30, 36 and CPP45—see table 1 for clinical descriptions) were maintained in complete DMEM (Gibco) with 10% FBS. Cells were obtained from biopsies provided by CHU-Caremeau (Nimes, France) within an approved protocol. Signed informed consents were obtained from patients prior to samples acquisition in accordance with all ethical and legal aspects. Tumors were washed, minced into fragments (<2 mm^3) and digested with liberase H (0.26 U/mL, Roche) resuspended in Accumax (Sigma-Aldrich). After 2 hours at 37° C., cell suspension was filtered through a […] to obtain a single cell suspension and plated in DMEM medium, supplemented with FBS, glutamine, antibiotics and non-essential aminoacids. When a monolayer of patient-derived tumor cells was formed, cells were detached using trypsin/EDTA and resuspended in DMEM with 10% FBS (for adherent cells) or defined M11 media (for sphere formation). Cells were cultured in a humidified atmosphere at 37° C. and 5% CO2.
Cells were plated at 10^4 cells per well in P96 well plates in DMEM with 10% FBS. After 24 hours, cells were treated with compound 2-3 and cell viability was assessed 72 h post-treatment by CellTiter-Glo® Luminescent Cell Viability Assay (Promega). EC50 were calculated using GraphPad Prism Software v6 (Graphpad Software, Inc La Jolla, Calif.). […]

[2] = tested on: CAKI-1 cell line; experiment: CellTiter-Glo growth inhibition assay, CAKI-1; type: cell-based; conditions: Homo sapiens, CAKI-1, 72 h
Procedure: (§1) CAKI-1 and 786-0 cell lines were maintained in RPMI 1640 medium (Dutscher, L0498) containing 1% penicillin-streptomycin (Dutscher, P06-07100) and 10% Fetal Bovine Serum (Gibco, W3387L) and cultured at 37° C. with 5% CO2.
(§2) Cell viability was measured using the CellTiter-Glo® luminescent cell viability assay as described by the manufacturer (Promega, Ref G7571) using an Infinite F200Pro luminometer (Tecan). Briefly, cells were plated onto 96-well plates (white with clear bottom) in 90 μL of media per well and were allowed to grow overnight before the assay.
(§3) Compounds 2-3 and two reference compounds (Sorafenib and Sunitinib) were added at different concentrations to each well, and cell cultures were incubated for 72 h. For compound 2-3 analysis, H2O was used as a negative control (=untreated) and all concentrations were tested in a constant percentage of H2O. For Sorafenib and Sunitinib analysis, DMSO was used as a negative control (=untreated) and all concentrations were tested in a constant percentage of DMSO. 72 h after incubation of compounds, 100 μL of CellTiter-Glo® were added to each well and luminescence was measured using an Infinite F200Pro (Tecan). EC50 values were determined as the dose of compound required to reduce luminescent values to 50% of the signal obtained for untreated cell cultures. The experimental data were analyzed using a computer program, Graphpad Prism v5 (GraphPad Software, Inc. La Jolla, Calif.). All experiments were at least done in triplicate and repeated at least three independent times.

[3] = tested on: LI0050 HCC patient derived cells; experiment: CellTiter-Glo growth inhibition, HCC patient-derived cells LI0050; type: cell-based, human; conditions: Homo sapiens; LI0050, 72 hours
Procedure: (§4) The patient derived Hepatocellular Carcinoma (HCC) cells were maintained in medium respectively described in table 15 containing 1% penicillin-streptomycin (Life Technologies, 15070-063), with a supplements for primary cell culture (PCS) containing hydrocortisone (50 nM), Epidermal Growth Factor (20 ng/ml), β-fibroblast Growth Factor (10 ng/ml), Heparin (2 μg/ml) ITS liquid media supplement (1×) and non-essential amino acid (NEAA, 0.01 mM, 1×). The primary cell were cultured in a humidified atmosphere (95% relative humidity) with 5% CO2 at 37° C.
(§5) The cell growth inhibition assay was performed as described previously in example 5 using the CellTiter-Glo® luminescent cell viability assay as described by the manufacturer (Promega, Ref G7571). The number of cells seeded per well (in 96-Well Flat Clear Bottom Black Polystyrene TC-Treated Microplates, Cat #3340, Corning®) is described in the table 16. A backseal black sticker (Cat #6005189, Perkin Elmer) was placed to the bottom of each plate before recording CellTiter-Glo® luminescence.
(§6) The experimental data are analyzed using a computer program, Graphpad Prism V 5.0 (GraphPad Software, Inc. La Jolla, Calif.) and EC50 values were determined as the dose of compound required to reduce absorbance values to 50% of the signal obtained for vehicle treated cell cultures and were a mean of at least three independent experiments.

[4] = tested on: A375 cell line; experiment: CellTiter-Glo growth inhibition assay, A375; type: cell-based; conditions: Homo sapiens, A-375; A375, malignant melanoma, 72 h
Procedure: (§7) All cell lines were maintained in medium containing 1% penicillin-streptomycin (Dutscher, P06-07100) and 10% Fetal Bovine Serum (Gibco, W3387L) except 20% for KG-1 cell line and PBMC, and cultured at 37° C. with 5% CO2.
HepG2, Huh7, HCT-116, MDA-MB-231 and A375 cell lines were cultured in Dulbecco's modified Eagle's medium (Dutscher, L0103).
as §2, with “Briefly, for adherent cells,” for “Briefly,”, “assay. For cells growing in suspension, cells were plated onto 96-well plates immediately before the assay.” for “assay.”
(§8) Compounds were added at different concentrations to each well, and cell cultures were incubated for 72 h. Vehicle (H2O) was used as a control, and all compounds were tested in a constant percentage of H2O. After addition of 100 μL of CellTiter-Glo®, luminescence was measured using an Infinite F200Pro (Tecan). EC50 values were determined as the dose of compound required to reduce luminescent values to 50% of the signal obtained for untreated cell cultures. The experimental data were analyzed using a computer program, Graphpad Prism v5 (GraphPad Software, Inc. La Jolla, Calif.). […]

[5] = tested on: PBMC (peripheral blood mononuclear cell); experiment: CellTiter-Glo growth inhibition assay, PBMC; type: cell-based; conditions: 72 h
Procedure: as §7
PBMC was maintained in RPMI 1640 medium medium (Dutscher, L0498).
as §2, with “Briefly, for adherent cells,” for “Briefly,”, “assay. For cells growing in suspension, cells were plated onto 96-well plates immediately before the assay.” for “assay.”
as §8

[6] = tested on: LI0752 HCC patient derived cells; experiment: CellTiter-Glo growth inhibition, HCC patient-derived cells LI0752; type: cell-based, human; conditions: Homo sapiens; LI0752, 72 hours
Procedure: as §4, §5, §6

[7] = tested on: 786-O cell line; experiment: CellTiter-Glo growth inhibition assay, 786-O; type: cell-based; conditions: Homo sapiens, 786-0, 72 h
Procedure: as §1, §2, §3

pEC50 [3]: 5.46 | pEC50 [4]: 6.00 | pEC50 [6]: 6.30 | pEC50 [7]: 5.68
SMILES: CC(C)(C)NC1CCN(c2cc(NCc3ccc(Cl)cc3)nc3ccccc23)CC1 [Compound 2-3, 2-(4-chlorobenzylamino)-4-(4-tert-butylaminopiperidin-1-yl)-quinoline hydrochloride salt]
pEC50 [1]: 5.91 | pEC50 [2]: 5.85 | pEC50 [5]: 5.72
